Test results: patent publication US5686486A, “4-hydroxy-benzopyran-2-ones and 4-hydroxy-cycloalkyl[b]pyran-2-ones useful to treat retroviral infections” (priority 1995, dated 1997)
pKi: −log10 of the molar value.

Key:
HIV-1 protease [1] = molecular target: T1, HIV-1 protease (Human immunodeficiency virus type 1 group M subtype B, UniProt P04585); assay: biochemical; settings: read-out: HIV-1 FITC KI
In short: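 Enzyme (40 nM stock) and substrate (200 μM stock) incubated with inhibitor, 24–48 two-fold serial concentrations, for 90 min at room temperature, then quenched with avidin beads. Nonlinear least-squares analysis gives Ki; a known-Ki inhibitor validates each run.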

HIV-1 protease [2] = molecular target: T1, HIV-1 protease; assay: biochemical; settings: for inhibition at 0.123 µM: read-out: HIV-1 Protease % Inhib, dose 0.123 uM; for inhibition at 0.37 µM: read-out: HIV-1 Protease % Inhib, dose 0.370 uM; for inhibition at 1.1 µM: read-out: HIV-1 Protease % Inhib, dose 1.100 uM; for inhibition at 3.3 µM: read-out: HIV-1 Protease % Inhib, dose 3.300 uM; for inhibition at 10 µM: read-out: HIV-1 Protease % Inhib, dose 10.000 uM; for inhibition at 30 µM: read-out: HIV-1 Protease % Inhib, dose 30.000 uM
In short: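 Percent inhibition derived from fluorescent cleavage product separated by filtration after streptavidin-bead capture of intact biotin/FITC substrate. Reaction: enzyme (10 μl, 0.1 μM stock) with substrate (20 μl, 0.2 μM stock) and compound, 1 h at room temperature in dark, pH 5.5 acetate buffer with 1.0 M NaCl and 0.05% NP-40.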

SMILES	pKi (HIV-1 protease [1])	inhibition at 0.123 µM (HIV-1 protease [2]) [%]	inhibition at 0.37 µM (HIV-1 protease [2]) [%]	inhibition at 1.1 µM (HIV-1 protease [2]) [%]	inhibition at 3.3 µM (HIV-1 protease [2]) [%]	inhibition at 10 µM (HIV-1 protease [2]) [%]	inhibition at 30 µM (HIV-1 protease [2]) [%]	inhibition at 0.41 µM (HIV-1 protease [2]; read-out: HIV-1 Protease % Inhib, dose 0.410 uM) [%]	inhibition at 1.23 µM (HIV-1 protease [2]; read-out: HIV-1 Protease % Inhib, dose 1.230 uM) [%]	inhibition at 3.7 µM (HIV-1 protease [2]; read-out: HIV-1 Protease % Inhib, dose 3.700 uM) [%]	inhibition at 11 µM (HIV-1 protease [2]; read-out: HIV-1 Protease % Inhib, dose 11.000 uM) [%]	inhibition at 33 µM (HIV-1 protease [2]; read-out: HIV-1 Protease % Inhib, dose 33.000 uM) [%]	inhibition at 100 µM (HIV-1 protease [2]; read-out: HIV-1 Protease % Inhib, dose 100.000 uM) [%]
CCC(O)C1CCCCCc2c1oc(=O)c(C(c1ccccc1)C1CC1)c2O (stereo not drawn) [Example 134, 3-(Cyclopropyl-phenyl-methyl)-4-hydroxy-10-(1-hydroxy-propyl)-5,6,7,8,9,10-hexahydro-cycloocta[b]pyran-2-one]	7.82	54	97.7	104	111	111	109						
O=c1oc2c(c(O)c1C(c1ccc(CO)s1)C1CC1)CCCCCC2 (stereo not drawn) [Example 384]	7.62	12.2	47.4	79.2	92.9	103	102						
O=C(NCc1ccc(C(c2c(O)c3c(oc2=O)CCCCCC3)C2CC2)s1)OCc1ccccc1 (stereo not drawn) [Example 389, 3-(α-Cyclopropyl (5-(N-carbobenzoxy)aminomethyl)thien-2-ylmethyl)-4-hydroxy-5,6,7,8,9,10-hexahydrocycloocta[b]pyran-2-one]	7.34		21.1	58	78.7	96.4	98.7						
O=c1oc2c(c(O)c1C(c1cccc(NS(=O)(=O)c3ccccc3C(F)(F)F)c1)C1CC1)CCCCCC2 (stereo not drawn) [Example 286, N-[3-[Cyclopropyl(5,6,7,8,9,10-hexahydro4-hydroxy-2-oxo-2H-cycloocta[b]pyran-3-yl)methyl]phenyl]-2-(trifluoromethyl)-benzenesulfonamide]	7.67	30	62.4	83.3	92.3	97.4	93.7						
O=c1oc2c(c(O)c1C(c1cccc(NS(=O)(=O)c3cccc(O)c3)c1)C1CC1)CCCCCC2 (stereo not drawn) [Example 405, N-[3-[Cyclopropyl(5,6,7,8,9,10-hexahydro-4-hydroxy-2-oxo-2H-cycloocta[b]pyran-3-yl)methyl]phenyl]-3-hydroxy-benzenesulfonamide]	8.50	46.5	88.6	101	106	101	77.2						
C=CS(=O)(=O)Nc1cccc(C(c2c(O)c3c(oc2=O)CCCCCC3)C2CC2)c1 (stereo not drawn) [Example 316, N-[3-[Cycloproopyl(5,6,7,8,9,10-hexahydro4-hydroxy-2-oxo-2H-cycloocta[b]pyran-3-yl)methyl]phenyl]-ethenesulfonamide]	7.74		31.2	77.8	98.1	103	111						
C=CCCC1CCCCc2c1oc(=O)c(C(c1ccccc1)C1CC1)c2O (stereo not drawn) [Example 135, 9-But-3-enyl-3-(cyclopropyl-phenyl-methyl)4-hydroxy-6,7,8,9-tetrahydro-5H-cyclohepta[b]pyran-2-one]	7.52							87.1	92.5	96.7	82.4	71.2	63.6
Nc1cc(NS(=O)(=O)c2ccccc2)cc(C(c2c(O)c3c(oc2=O)CCCCCC3)C2CC2)c1 (stereo not drawn) [Example 486]	7.26		40	74	97.5	126	109						
O=c1oc2c(c(O)c1C(c1cccc(NS(=O)(=O)c3ccc(CBr)cc3)c1)C1CC1)CCCCCC2 (stereo not drawn) [Example 403, 4-(Bromomethyl)-N-[3-[cyclopropyl(5,6,7,8,9,10-hexahydro-4-hydroxy-2-oxo-2H-cycloocta[b]pyran-3-yl)methyl]phenyl]-benzenesulfonamide]	8.30	41.6	77.5	92.9	94.8	95.6	97						
